In patent US9500656B2, “Methods for the identification, assessment, and treatment of patients with cancer therapy” (Millennium Pharmaceuticals, Inc., priority 2006, dated 2016):

What was measured:
Type in all cases: in vivo, human
[1] = test system: relapsed or refractory multiple myeloma; experiment: Open-label randomized study of bortezomib versus high-dose dexamethasone (Protocol M34101-039); settings: for survival: 22 month median follow-up, 44% events occurred; for One-year survival: in vivo
Experimental: A multicenter, open-label, randomized study was conducted, comprising 627 enrolled patients with relapsed or refractory multiple myeloma (Protocol M34101-039). See Richardson et. al., N. Engl. J. Med., 352:2487-2498 (2005).
Randomization was to be stratified, based on the number of lines of prior therapy (one prior line versus more than one prior line of therapy), time of progression relative to treatment (progression while on their most recent therapy or within 6 months of stopping their most recent therapy, or relapse >6 months after receiving their most recent therapy), and screening β2-microglobulin levels (>2.5 mg/L versus ≦2.5 mg/L).
Patients assigned to the high-dose dexamethasone group received treatment for a maximum of 280 days. Patients in this treatment group received up to four 5-week treatment cycles, followed by up to five 4-week treatment cycles. Within each 5-week treatment cycle, the patient received dexamethasone 40 mg/day PO, once daily on Days 1 to 4, 9 to 12, and 17 to 20 of a 35-day cycle. Within each 4-week treatment cycle, the patient received dexamethasone 40 mg/day PO once daily on Days 1 to 4 of a 28 day cycle.
(§1) During the study, disease response was assessed according to the European Group for Blood and Marrow Transplant (EBMT) criteria as presented in Table C.
See Richardson P G, et al. [submitted NEJM].
Disease progression was determined by Blade criteria as described in Table C and above. […] The date of progression was determined by computer algorithm. P-value from log-rank test adjusted by actual randomization factors. See, Richardson et al., New Engl J Med., submitted.

[2] = test system: multiple myeloma; experiment: Response (EBMT criteria) in the pharmacogenomic patient subset; settings: for CR (number of patients) / MR (number of patients) / NC (number of patients) / PD (number of patients) / PR (number of patients): study 039, pharmacogenomic patients
Experimental: as §1
A total of 264 patient samples were assessed for pharmacogenomic analyses. These patient samples were collected from the clinical trials of bortezomib for the treatment of multiple myeloma (see Table E). […] All pharmacogenomic analyses relied on the European Group for Blood and Marrow Transplant (EBMT) criteria of response category.

[3] = test system: multiple myeloma; experiment: Phase 2 clinical study M34100-025 (second or greater relapse, refractory to last prior therapy); settings: bortezomib alone
From the text: (§2) See Richardson P G, et al. N Engl J Med., 348:2609-17 (2003). […] See Jagannath, Br J Haematol. 127:165-72 (2004). Patient samples and response criteria from patients participating in these studies, as well as the following additional studies described below were sought for use in pharmacogenomic analyses to identify markers associated with patient survival.

[4] = test system: relapsed multiple myeloma; experiment: Phase 2 clinical study M34100-024 (first relapse)
From the text: as §2

[5] = best confirmed response, bortezomib n = 315, dexamethasone n = 312
[6] = pharmacogenomic set of patients, EBMT criteria
[7] = difference in response rates, bortezomib versus dexamethasone

Structure (SMILES)	survival [1] [months]	Complete Response [1, 5]	Minor Response [1, 5]	Near CR: IF+ [1, 5]	Progressive Disease [1, 5]	SWOG Remission [1, 5]	One-year survival [1] [%]	CR (number of patients) [2]	MR (number of patients) [2]	NC (number of patients) [2]	PD (number of patients) [2]	PR (number of patients) [2]	other results
C[C@@H]1C[C@H]2[C@@H]3CCC4=CC(=O)C=C[C@]4(C)[C@@]3(F)[C@@H](O)C[C@]2(C)[C@@]1(O)C(=O)CO [dexamethasone]	24	2 (<1) n (%)	52 (17) n (%)	3 (<1) n (%)	41 (13) n (%)	17 (5) n (%)	66	1	11	16	22	13	Overall Response Rate (CR + PR) [1, 5]: 56 (18) n (%); Partial Response [1, 5]: 54 (17) n (%); CR+PR rate [2, 6]: 22.2%; overall response rate [2, 6]: 39.7%
CC(C)C[C@H](NC(=O)[C@H](Cc1ccccc1)NC(=O)c1cnccn1)B(O)O [bortezomib, N-pyrazinecarbonyl-L-phenylalanine-L-leucineboronic acid]	30	20 (6) n (%)	25 (8) n (%)	21 (7) n (%)	22 (7) n (%)	46 (15) n (%)	80	5	5	19	13	25	CR+PR rate ([3]; 53 of 193 patients): 27%; overall response rate (CR+PR+MR) ([3]; 67 of 193 patients): 35%; CR+PR rate ([4]; bortezomib 1.0 mg/m^2): 30%; CR+PR rate ([4]; bortezomib 1.3 mg/m^2): 38%; decrease in risk of death ([1]; bortezomib group versus dexamethasone, first year after enrollment): 41%; Difference (95% CI), CR + PR + MR [1, 7]: 0.12 (0.04, 0.19); Difference (95% CI), Complete Response [1, 7]: 0.06 (0.03, 0.09); Difference (95% CI), Minor Response [1, 7]: −0.09 (−0.14, −0.04); Difference (95% CI), Near CR: IF+ [1, 7]: 0.06 (0.03, 0.09); Difference (95% CI), No Change [1, 7]: −0.04 (−0.12, 0.04); Difference (95% CI), Overall Response Rate (CR + PR) [1, 7]: 0.20 (0.14, 0.27); Difference (95% CI), Partial Response [1, 7]: 0.15 (0.08, 0.21); Difference (95% CI), Progressive Disease [1, 7]: −0.06 (−0.11, −0.01); Difference (95% CI), SWOG Remission [1, 7]: 0.09 (0.05, 0.14)
